From ChEMBL document CHEMBL5344423, “Alstoboonine, an Ulean-Type Indole Alkaloid from Alstonia boonei Leaves” (J Nat Prod, 2024)
≈ marks a conversion by molar mass, not a printed value. Calls of active or inactive are those of the source. The calls are words filed in the database; no cut-off is given here.

Experiments:
[1] = Cytotoxicity against human MCF7 cells assessed as reduction in cell viability after 48 hrs by MTT assay; format: toxicity, cell-based
[2] = system: Plasmodium falciparum; experiment: Antiprotozoal activity against Plasmodium falciparum NF54 intraerythrocytic forms incubated for 48 hrs by 3H-hypoxanthine incorporation assay; format: functional, organism-based
[3] = system: Trypanosoma brucei; experiment: Antiprotozoal activity against bloodstream form Trypanosoma brucei STIB 900 trypomastigotes […] by microplate reader analysis; format: functional, organism-based
[4] = system: Leishmania donovani; experiment: Antiprotozoal activity against Leishmania donovani MHOM-ET-67/L82 amastigotes incubated for 72 hrs by microplate reader analysis; format: functional, organism-based; conditions: MHOM-ET-67/L82, 72 h
[5] = system: Trypanosoma cruzi; experiment: Antiprotozoal activity against Trypanosoma cruzi Tulahuen C4 amastigotes measured after 96 hrs by microplate reader analysis; format: functional, organism-based; conditions: Tulahuen C4, 96 h
[6] = Cytotoxicity against rat L6 cells incubated for 72 hrs by Resazurin-dye based assay; format: toxicity, cell-based
[7] = system: Caenorhabditis elegans; experiment: Anthelmintic activity against Caenorhabditis elegans N2 Bristol assessed as lethality; format: functional
[8] = system: Caenorhabditis elegans; experiment: Anthelmintic activity against Caenorhabditis elegans N2 Bristol assessed as mortality at 10 mM relative to control; format: functional
[9] = system: Caenorhabditis elegans; experiment: Anthelmintic activity against Caenorhabditis elegans N2 Bristol assessed as lethality on young adult worms at 10 mM incubated for 48 hrs; format: functional, organism-based
[10] = system: Caenorhabditis elegans; experiment: Anthelmintic activity against Caenorhabditis elegans N2 Bristol assessed as mortality at 40 mM relative to control

COC(=O)/C1=C/OC2=Nc3c(OC)cccc3[C@@]23CCN2C[C@@H](C(C)=O)[C@@H]1CC23
IC50 at 48 h [1]: > 100 µM

COC(=O)[C@@]1(c2cc3ccccc3[nH]2)COC[C@H]2O[C@]23CN(C)CC[C@@H]31
IC50 at 48 h [1]: > 100 µM

C=CC12OC[C@@]3(C(=O)OC)c4[nH]c5ccccc5c4C1NCCC23O
IC50 at 48 h [1]: > 100 µM | IC50 [2]: 2.4 µg/mL (≈ 7.05 µM) | IC50 [3]: 20 µg/mL (≈ 58.8 µM) | IC50 [4]: 75 µg/mL (≈ 220 µM) | IC50 [5]: > 100 µg/mL | IC50 at 72 h [6]: 50 µg/mL (≈ 147 µM)

CCCCCCCCCCCCCCCCOP(=O)([O-])OCC[N+](C)(C)C [MILTEFOSINE]
IC50 [4]: 0.26 µg/mL (≈ 0.638 µM)

COC(=O)/C1=C/OC2=Nc3c(OC)cccc3[C@@]23CCN2C[C@@H]([C@H](C)O)[C@@H]1CC23
LC50 [7]: 400 µM | IC50 at 48 h [1]: > 100 µM | mortality at 10000 µM [8]: 100%

COC(=O)C1=C2Nc3c(OC)cccc3[C@@]23CCN2C[C@@H](C(C)=O)[C@@H]1C[C@H]23
IC50 at 48 h [1]: > 100 µM

C/C=C1/CN2CC[C@@]34C(=Nc5c(OC)cccc53)O/C=C(/C(=O)OC)[C@H]1CC24
Activity [9]: inactive | IC50 at 48 h [1]: > 100 µM

O=C(Cn1ccnc1[N+](=O)[O-])NCc1ccccc1 [BENZNIDAZOLE]
IC50 [5]: 0.69 µg/mL (≈ 2.65 µM)

COC(=O)[C@@]1(c2cc3ccccc3[nH]2)COCC=C2CN(C)CC[C@@H]21 [6,7-SECO-ANGUSTILOBINE B]
IC50 at 48 h [1]: > 100 µM

c1ccc([C@H]2CN3CCSC3=N2)cc1 [LEVAMISOLE]
mortality at 40000 µM [10]: 71%

COC(=O)C1=C2Nc3c(OC)cccc3[C@@]23CCN2C[C@@H]([C@H](C)O)[C@@H]1C[C@H]23
Activity [9]: inactive | IC50 at 48 h [1]: > 100 µM

C=C[C@@]12CN3CC[C@]1(O)[C@@](C(=O)OC)(CO2)c1[nH]c2ccccc2c1C3
Activity [9]: inactive | IC50 at 48 h [1]: 26 µM
